Experimental data: patent publication US20110151020A1, “ACTIVE SUBSTANCE COMBINATION WITH GEMCITABINE FOR THE TREATMENT OF EPITHELIAL CANCER” (priority 2008, published 2011)
“Also recorded” adds a separate entry of the source. Read-outs that look alike come from different tables or passages of the source.

Experiments:
[1] = test system: CD133+ pancreatic cancer stem cells (L3.6pl cells); assay: CD133 content by flow cytometry in L3.6pl pancreatic cancer cells; type: cell-based, human; details: for CD133 content of L3.6pl cells: Example 4.2, inhibitor alone or with Gemcitabine
Description: In this experiment, potentially effective substances for the targeted elimination of CD133^+ pancreatic cancer stem cells (CSC) were screened by means of flow cytometry following 48 hours of therapy. […] As a Gemcitabine concentration of 100 ng/ml was the lowest concentration capable of achieving a strong relative enrichment for CD133^+ cells through depletion of CD133^− cells, this concentration was chosen for subsequent experiments.
(§1) Human pancreatic cancer cell line. The highly metastatic human pancreatic cell line L3.6pl was maintained in DMEM medium (Invitrogen, Karlsruhe, Germany) with 12% Fetal Calf Serum (Biochrom, Berlin, Germany), Glutamax (Invitrogen), non-essential amino acids, and vitamins (all from PAN, Aidenbach, Germany) (Hermann et al., 2007, supra). Cultures were kept no longer than 4 weeks after recovery from frozen stocks. CSC spheres were cultured in DMEM-F12 supplemented with B27 (Gibco, Karlsruhe, Germany) and FGF-2 (PeproTech EC, London, United Kingdom) (Hermann et al., 2007, supra).
Cytometry. Pancreatic CSC were identified by CD133/1-APC or CD133-PE (Miltenyi, Bergisch-Gladbach, Germany) (Hermann et al., 2007, supra). Side population experiments were performed as described by Goodell et al. (1996) (see Goodell et al., 1996, J Exp Med 183, 1797-1806) and cells were identified by exclusion of the vital dye Hoechst 33342. To detect activation of the PI3K/Akt/mTOR pathway by means of the phosphorylation status of the s6 ribosomal protein (s6rp), cells cultivated with standard medium were stained with a rabbit anti-phospho-S6 ribosomal protein antibody (Cell Signalling Technology, Danvers, Mass.).
(§2) In vitro treatment of pancreatic cancer cells. […] For the evaluation of the in vivo tumorigenicity, […] L3.6pl cells were pretreated with the respective regimen and the remaining viable cells were orthotopically implanted into the pancreas of nude mice and evaluated on day 35. For the systemic infusion assay, cells were labelled with the Qtracker 800 labelling kit (Invitrogen) according to the manufacturer's instructions, and 5×10^5 cells were injected intravenously into mice. After 4 weeks, explanted lungs were scanned for metastases with a near-infrared imaging platform (Odyssey, Li-cor, Lincoln, Nebr.). Positive signals were verified by histology (H&E staining).
Using SB431542, a specific inhibitor of the receptors for Nodal and Activin, ALK-4 and -7 respectively, it was investigated whether the content of the CD133(+) population is affected by inhibition of Activin/Nodal signaling. As mutations affecting the TGF-superfamily pathway are very common in pancreatic neoplasms, pancreatic cell lines harboring different mutations in this pathway were screened (Table 1).

[2] = test system: CD133+ cancer stem cells in tumour cell lines; assay: CD133 content by flow cytometry in tumour cell lines after 48 hours of in-vitro treatment; type: cell-based, human
Description: As a first step the content of cancer stem cells (measured as “CD 133-content”) in the whole population of tumour cells was measured by flow cytometry (FIGS. 1A-1C).
As a first step the content of cancer stem cells (measured as “CD 133-content”) within the entire tumour cell population was measured by flow cytometry (FIGS. 10A-10C).

CSC population = details: fraction of original population remaining; cited from earlier work
pancreatic CSC spheres = assay: CSC-enriched tumour sphere assay; type: cell-based, human; details: ultra low adhesion 6-well plates
Description: First, pancreatic CSC were clonally expanded as CSC-enriched spheres (FIGS. 18C1-18C5). Floating spheres were treated in ultra low adhesion 6-well plates. After completion of the treatment, five randomly selected high-power fields were analyzed.
as §1

[3] = test system: L3.6pl pancreatic cancer cells; assay: Tumorigenicity after in vitro pre-treatment and orthotopic implantation; type: in vivo, mice
Description: After 96 hours of pretreatment, the remaining viable cells were orthotopically implanted into the pancreas of mice, which received no further treatment in vivo.
Cultivated pancreatic cancer cells were exposed to either Gemcitabine alone representing clinical standard therapy, SB431542 alone, or a combination of Gemcitabine and SB431542 in the above given respective concentrations. After 96 hours of pretreatment, the remaining viable cells were orthotopically implanted into the pancreas of mice, which received no further treatment in vivo.
A prerequisite of CSC is their ability to form tumours in secondary recipients. Due to the limited number of cancer (stem) cells that can be obtained from primary tissues, it is virtually impossible to reproducibly perform in vivo treatment experiments with fresh patient-derived cells. Therefore, all subsequent in vivo experiments were performed with the established L3.6pl pancreatic cancer cells. The design of the experiment is illustrated in FIG. 20A. […] After 4 days of pretreatment, the surviving cells were orthotopically implanted into the pancreas, which received no further in vivo treatment. Tumorigenicity was first determined by PET scans on day 30 (FIGS. 20B, 20C; left panel) and by final macroscopic and microscopic histological evaluation on day 35 (FIGS. 20B, 20C; right panel).
Animals and Orthotopic Implantation of Tumour Cells. Single-cell suspensions were orthotopically implanted into the pancreas of female NMRI nu/nu mice (Janvier, Le Genest-Saint-Isle, France) (Hermann et al., 2007, supra). Size and weight of the pancreatic tumours were monitored.
as §2

Alk4/7 = assay: Smad2 phosphorylation after recombinant Nodal; type: cell-based
[4] = test system: primary human pancreatic cancer tissue; assay: In vivo treatment of implanted patient pancreatic tumor tissue with gemcitabine plus SB431542; set-up: species or system mice; details: mouse, in vivo
Description: FIG. 33: In vivo treatment with the Alk4/7 inhibitor SB431542. This illustrates Nodal/Activin inhibition to eliminate primary human pancreatic CSC in vivo. Tumor tissue from patient with pancreatic cancer was implanted into immunocompromised mice. Treatment was started on day 7 after implantation. Mice were randomized to gemcitabine alone or gemcitabine plus SB431542. Tumor growth was assessed on day 28.

BxPC3 cells = assay: CD133 content by flow cytometry in BxPC3 cells; type: cell-based, human
Excerpt: (§3) Using SB431542, a specific inhibitor of the receptors for Nodal and Activin, ALK-4 and -7 respectively, it was investigated whether the content of the CD133(+) population is affected by inhibition of Activin/Nodal signaling. As mutations affecting the TGF-superfamily pathway are very common in pancreatic neoplasms, pancreatic cell lines harboring different mutations in this pathway were screened (Table 1). […] Without being bound thereto, this indicates a Nodal/[…] mediated pathway being independent from SMAD4 as an underlying mechanism.

MiaPaca cells = assay: CD133 content by flow cytometry in MiaPaCa cells; type: cell-based, human
Excerpt: as §3

[5] = test system: primary human pancreatic cancer cells; assay: Sphere formation in primary human pancreatic cancer cells; type: cell-based
CD133-positive cells = assay: Cell cycle / apoptosis of CD133-positive cells (BrDU flow kit); type: cell-based
Excerpt: As the precise fate of CD133-positive cells during treatment with antagonists of Activin or Nodal was to be assessed, the cell cycle of these cells was investigated using a BrDU flow kit (see FIGS. 26A-26G).

CD133 positive CSC = assay: CD133 positive population after extracellular antagonists of Nodal and Activin A; type: cell-based
Excerpt: Furthermore, cells in culture were subjected to extracellular antagonists of Nodal (Lefty) and Activin A (Follistatin) to see whether both components are functionally relevant for the maintenance of the CD133 positive CSC compartment.

[6] = test system: sphere derived cells (185s); assay: Soft agar colony formation assay; type: cell-based; details: soft agar assay 14d
Excerpt: FIGS. 31A-D: show a Gain of function by Nodal stimulation—Sphere derived cells (185s) bear a higher colony forming capacity as compared to adherent cells (185) as evidence for an enrichment in cancer stem cells (in a soft agar assay 14d).

[7] = 5 μM SB431542, 100 ng/ml Gemcitabine, ALK5 inhibitor SB-505124

With `CC1=C2C[C@H]3[C@@H](CC=C4C[C@@H](O)CC[C@@]43C)[C@@H]2CC[C@]12O[C@@H]1C[C@H](C)CN[C@H]1[C@H]2C` [Cyclopamine, 11-deoxojervine] the “CD133+ cell content” value ([1]; 48 hours of therapy, Gemcitabine 100 ng/ml) was “moderate, albeit significant decrease”, the CD133 content ([1]; inhibitor alone, CUR199691 10 μM) was 55% and the “content of cancer stem cells (CD 133-content)” value (“content of cancer stem cells” for short) ([2]; 100 ng/ml Gemcitabine, 100 ng/ml Rapamycin, 10 μM Cyclopamine, separately or triple combination) was “None of the investigated molecules (Gemcitabine, Rapamycin and Cyclopamine) was capable of significantly reducing”. The “reduction of the original CSC population (aldehyde dehydrogenase marker)” value (CSC population) was “⅓”, the “tumour spheres / CD133+ cells in CSC-enriched spheres” value (pancreatic CSC spheres) was “reduction of tumour spheres” and the “tumour take rate / tumorigenicity” value ([3]; 4 days of pretreatment, PET day 30, histology day 35) was “neither Cyclopamine nor Rapamycin monotherapy significantly affected tumour take rates”.

For `NC(=O)c1ccc(-c2nc(-c3ccc4c(c3)OCO4)c(-c3ccccn3)[nH]2)cc1` [SB431542], the “CD133 content 24 hours after withdrawal of therapy” value ([1]; 24 hours after withdrawal) was “already started to approach control level”, the “CD133 content 48 h after withdrawal of therapy” value ([1]; 48 h after withdrawal) was “enrichment for CD133 compared to base level” and the “CD133 content of L3.6pl cells” value [1] was “decrease; also recorded: drastically reduced”. For the same molecule, the “content of cancer stem cells” value [2, 7] was “significant reduction”, the “phosphorylation of Smad2 (pSmad2)” value (Alk4/7) was “abrogated this increase in pSmad2” and the “tumorigenicity after in vitro pre-treatment” value ([3]; 96 hours pretreatment, 100 ng/ml Gemcitabine, 5 μM SB431542) was “close to no effect; also recorded: did not affect the tumorigenicity”. The body weight [4] was “lack of change”, the severe side effects [4] was “did not result in severe side effects” and the “white blood cell counts (WBC)” value [4] was “lack of change”. The “CD133 content of BxPC3 cells” value (BxPC3 cells) was “no response”, the “CD133(+) sub-population of MiaPaca cells” value (MiaPaca cells) was “decrease” and the “cell viability (dapi staining)” value [5] was “did not affect cell viability”. For the same molecule, the sphere formation [5] was “in a dose-dependent manner reduced sphere formation” and the “induction of apoptosis in CD133-positive cells” value (CD133-positive cells) was “modest induction of apoptosis”.

With `Cc1cccc(-c2[nH]c(C(C)(C)C)nc2-c2ccc3c(c2)OCO3)n1` [SB505124] the “CD133 content of L3.6pl cells” value [1] was “neither alone nor in combination with Gemcitabine an effect” and the “content of cancer stem cells” value [2, 7] was “did not lead to significant reduction”.

B1: Folistatin: single chain glycoprotein, inhibitor of Activin signaling (protein, UniProt P19883 30-344, looked up)
Follistatin: GNCWLRQAKNGRCQVLYKTELSKEECCSTGRLSTSWTEEDVNDNTLFKWMIFNGGAPNCIPCKETCENVDCGPGKKCRMNKKNKPRCVCAPDCSNITWKGPVCGLDGKTYRNECALLKARCKEQPELEVQYQGRCKKTCRDVFCPGSSTCVVDQTNNAYCVTCNRICPEPASSEQYLCGNDGVTYSSACHLRKATCLLGRSIGLAYEGKCIKAKSCEDIQCTGGKKCLWDFKVGRGRCSLCDELCPDSKSDEPVCASDNATYASECAMKEAACSSGVLLEVKHSGSCNSISEDTEEEEEDEDQDYSFPISSILEW
With B1 the “CD133 positive CSC population” value (CD133 positive CSC) was “reduction of CD133 positive CSC that was similar to the reduction seen for Lefty” and the “CD133 positive CSC population” value (CD133 positive CSC; listed as folistatin) was “reduction of CD133 positive cancer stem cells”.

B2: recombinant Nodal: recombinant Nodal, member of the TGF-β superfamily, used as stimulus (protein, UniProt Q96S42 238-347, looked up)
Nodal homolog: HHLPDRSQLCRKVKFQVDFNLIGWGSWIIYPKQYNAYRCEGECPNPVGEEFHPTNHAYIQSLLKRYQPHRVPSTCCAPVKTKPLSMLYVDNGRVLLDHHKDMIVEECGCL
In the case of B2, the “phosphorylation of Smad2 (pSmad2)” value (Alk4/7) is reported as “increased phosphorylation of downstream Smad2” and the colony formation [6] is reported as “further increase in colony formation”.
